The values that follow come from US12410148B2, “Antibody drug conjugates” (Pharma Mar, S.A., priority 2013, dated 2025).

Usually IC50 stands for the concentration needed to halve the response being measured.

Several values for one entry are separate records, joined by “and”; a condition that tells them apart may be missing. Identical values can stand only once. Like-named read-outs stand apart in the source and are kept apart here.

The subject of data set [1] is HCC-1954, SK-BR-3, MDA-MB-231 and MCF-7 cells. The data set can be described thus: In vitro cytotoxicity, whole breast cancer cell panel. The source says: (§1) All tumor cell lines used in this study were obtained from the American Type Culture Collection (ATCC), unless otherwise indicated; BT-474 (ATCC HTB-20, Breast Ductal Carcinoma), SK-BR-3 (ATCC HTB-30, Breast Adenocarcinoma) and HCC-1954 (ATCC CRL-2338, Breast Ductal Carcinoma), all HER2+; MDA-MB-231 (ATCC HTB-26, Breast Adenocarcinoma) and MCF-7 (ATCC HTB-22 Breast Adenocarcinoma, pleural effusion), all HER2-; SK-OV-3 (ATCC HTB-77, Ovary Adenocarcinoma), HER2+; NB-4 (Acute Promyelocytic Leukemia, APL, CD13+, M. Lanotte et al. (1991) NB4, a maturation inducible cell line with t(15;17) marker isolated from a human acute promyelocytic leukemia (M3). Blood 77, 1080-1086), (CD13+) and U937 (ATCC CRL-1 593.2, Histiocytic Lymphoma, CD13+ and CD4+); Raji (ATCC CCL-86, Burkitt's Lymphoma) (CD13−, CD20+, CD5−, and CD4−); RPMI-8226 (ATCC CRM-CCL-155, Multiple Myeloma) (CD13−, CD20−, CD5− and CD4−); Karpas-299 (DSMZ ACC-31, Non-Hodgkin's Lymphoma) (CD20−, CD5+, and CD4+); MOLT-4 (ATCC CRL-1 582, Acute Lymphoblastic Leukemia, CD5+). In addition, the two Raji cell (ATCC CCL-86, Burkitt's Lymphoma) clones used in this study Raji-clone #10 (high CD5 expression) and Raji-clone18 (null CD5 expression), were provided by Dr. Juan M. Zapata (Instituto de Investigaciones Biomedicas “Alberto Sols”, CSIC-UAM, Madrid, Spain). Cells were maintained at 37° C., 5% CO 2 and 95% humidity in Dulbecco's Modified Eagle's Medium (DMEM) (for MCF and MDA-MB-231 cells), RPMI-1640 (for SK-BR-3, HCC-1954, NB-4, U937, Raji, RPMI-8226, Karpas-299, MOLT-4, Raji-clone #10 and Raji-clone #18 cells), RPMI-1640+1% ITS (for BT-474 cells) or McCOyS (for SK-OV-3 cells), all media supplemented with 10% Fetal Calf Serum (FCS) and 100 units/mL penicillin and streptomycin.
For adherent cells: A colorimetric assay using sulforhodamine B (SRB) was adapted for quantitative measurement of cell growth and cytotoxicity, as described in V. Vichai and K. Kirtikara (2006) Sulforhodamine B colorimetric assay for cytotoxicity screening. Nature Protocols, 1, 1112-1 116. Briefly, cells were seeded in 96-well microtiter plates and allowed to stand for 24 hours in drug-free medium before treatment with vehicle alone or the indicated compounds for 72 hours. For quantification, cells were washed twice with phosphate buffered saline (PBS), fixed for 15 min in 1% glutaraldehyde solution, rinsed twice with PBS, stained in 0.4% SRB-1% acetic acid solution for 30 min, rinsed several times with 1% acetic acid solution and air-dried. SRB was then extracted in 10 mM trizma base solution and the optical density measured at 490 nm in a microplate spectrophotometer. Cell survival was expressed as percentage of control, untreated cell survival.
(§2) The IC50 value refers to the concentration of compound inducing a 50% of cell death as compared to the control cell survival.
Standard dose-response (DR) curves for 72 hours were performed.

The test system of the next data set is SK-BR-3 cells. Briefly: In vitro cytotoxicity, SRB assay, 72 h dose-response. It counts as cell-based. Particulars: Homo sapiens, SK-BR-3, 72 h, HER2+; 72 h; read-out: IC50. In general terms: The SRB assay estimates cell density from bound dye.
A further data set concerns MCF-7 cells. The data set is described as above. Format: cell-based. The conditions noted are these: Homo sapiens, MCF7, 72 h, HER2−; 72 h; read-out: IC50. The source says:
(§3) Nature Protocols, 1, 1112-1 116.

The test system of a further data set is HCC-1954 cells. The description is as above. Format: cell-based. Particulars: Homo sapiens, HCC1954, 72 h, HER2+; 72 h; read-out: IC50.
From the text: as §3

The next data set relates to MDA-MB-231 cells. Described as above. Format: cell-based. Particulars: Homo sapiens, MDA-MB-231, 72 h, HER2−; 72 h; read-out: IC50.
From the text: as §3

For data set [2], the system named is Raji, RPMI-8226 and Karpas-299 cells. Briefly: In vitro cytotoxicity, whole CD20 cell panel.
From the text: as §1
For suspension cells: A standard metabolic assay using MTT (3-(4,5-Dimethylthiazol-2-yl)-2,5-diphenyltetrazolium bromide) was adapted for quantitative measurement of cell growth and cytotoxicity, as described in T. Mosmann (1983) Rapid colorimetric assay for cellular growth and survival: Application to proliferation and cytotoxicity assays. J. Immunol. Meth., 65, 55-63. Briefly, MTT solution was added to the cell cultures at a final concentration of 0.5 mg/mL, and incubated for 1 to 4 hours at 37° C. until formazan crystals are formed. Culture medium is carefully removed from the cell cultures and formazan crystals resuspended in 100 μl DMSO. After mixing to assure solubilization, the quantity of formazan (presumably directly proportional to the number of viable cells) is measured by recording changes in absorbance at 570 nm using a plate reading spectrophotometer. Cell survival was expressed as percentage of control, untreated cell survival.
as §2
The in vitro cytotoxic activity of ADC12 along with the parent cytotoxic Compounds 1, 4, and 40, was evaluated was assayed against different human cancer cell lines expressing or not the CD20 antigen, including Raji (CD20 positive cells); RPMI-8226 and Karpas-299 (CD20 negative cells). Standard dose-response (DR) curves for 72 hours were performed.

Where [3] appears, read: Homo sapiens, read-out: IC50 values along the different cell lines tested (range), four breast cell lines.
Where [4] appears, read: Homo sapiens, read-out: mean IC50 value across the whole cell panel, four breast cell lines.
[5] abbreviates: read-out: mean IC50 value across the whole cell panel, four breast cell lines.

From the text for SK-BR-3 cells: All tumor cell lines used in this study were obtained from the American Type Culture Collection (ATCC), unless otherwise indicated; BT-474 (ATCC HTB-20, Breast Ductal Carcinoma), SK-BR-3 (ATCC HTB-30, Breast Adenocarcinoma) and HCC-1954 (ATCC CRL-2338, Breast Ductal Carcinoma), all HER2+; MDA-MB-231 (ATCC HTB-26, Breast Adenocarcinoma) and MCF-7 (ATCC HTB-22 Breast Adenocarcinoma, pleural effusion), all HER2-; SK-OV-3 (ATCC HTB-77, Ovary Adenocarcinoma), HER2+; NB-4 (Acute Promyelocytic Leukemia, APL, CD13+, M. Lanotte et al. (1991) NB4, a maturation inducible cell line with t(15;17) marker isolated from a human acute promyelocytic leukemia (M3). […] Cells were maintained at 37° C., 5% CO 2 and 95% humidity in Dulbecco's Modified Eagle's Medium (DMEM) (for MCF and MDA-MB-231 cells), RPMI-1640 (for SK-BR-3, HCC-1954, NB-4, U937, Raji, RPMI-8226, Karpas-299, MOLT-4, Raji-clone #10 and Raji-clone #18 cells), RPMI-1640+1% ITS (for BT-474 cells) or McCOyS (for SK-OV-3 cells), all media supplemented with 10% Fetal Calf Serum (FCS) and 100 units/mL penicillin and streptomycin.
For adherent cells: A colorimetric assay using sulforhodamine B (SRB) was adapted for quantitative measurement of cell growth and cytotoxicity, as described in V. Vichai and K. Kirtikara (2006) Sulforhodamine B colorimetric assay for cytotoxicity screening. […] Briefly, cells were seeded in 96-well microtiter plates and allowed to stand for 24 hours in drug-free medium before treatment with vehicle alone or the indicated compounds for 72 hours. For quantification, cells were washed twice with phosphate buffered saline (PBS), fixed for 15 min in 1% glutaraldehyde solution, rinsed twice with PBS, stained in 0.4% SRB-1% acetic acid solution for 30 min, rinsed several times with 1% acetic acid solution and air-dried. SRB was then extracted in 10 mM trizma base solution and the optical density measured at 490 nm in a microplate spectrophotometer. Cell survival was expressed as percentage of control, untreated cell survival.

As for `C/C=C\C[C@@H](C/C=C\NC(=O)[C@@H](NC(=O)\C=C/C=C\C(C)=C\[C@H](C)[C@@H]1CC=C(OC)C(=O)O1)C(C)(C)C)OC(=O)NCCCNC(=O)CCS` [Compound 18], the IC50 is 0.0044 µg/mL to 0.0185 µg/mL and 6.14 nM to 25.8 nM in data set [1] (setting [3]); 0.0106 µg/mL and 14.8 nM in data set [1] (setting [4]); 0.0044 µg/mL and 6.14 nM in the data set with SK-BR-3 cells; 0.0185 µg/mL and 25.8 nM in the data set with MCF-7 cells; 0.00805 µg/mL and 11.2 nM in the data set on HCC-1954 cells; 0.0115 µg/mL and 16 nM with MDA-MB-231 cells.

`CC#CC[C@@H](C/C=C\NC(=O)[C@@H](NC(=O)\C=C/C=C\C(C)=C\[C@H](C)[C@@H]1CC=C(OC)C(=O)O1)C(C)(C)C)OC(N)=O` [Compound 41]: the concentration for half-maximal inhibition (IC50) in data set [1] (setting [3]) is 0.075 to 0.14 ng/mL; in data set [1] (setting [4]), 0.00016 µg/mL and 0.29 nM; in data set [1] (setting [5]), 0.19 nM; with SK-BR-3 cells it was 0.00011 µg/mL and 0.193 nM; in the data set with MCF-7 cells it was 0.000265 µg/mL and 0.465 nM; in the data set with HCC-1954 cells, 0.000104 µg/mL and 0.183 nM. In addition, the IC50 with MDA-MB-231 cells is 0.00018 µg/mL and 0.316 nM.

`CC#CC[C@@H](C/C=C\NC(=O)[C@@H](NC(=O)\C=C/C=C\C(C)=C\[C@H](C)[C@@H]1CC=C(OC)C(=O)O1)C(C)(C)C)OC(=O)NCCCN` [Compound 24]: the “decrease of cytotoxic activity as compared to Compound 41” value in data set [1] (1,3-propylenediamine group) was “about 2 logs”. Also, the IC50 in data set [1] (Homo sapiens, read-out: IC50 values across the different cell lines tested (range), four breast cell lines) is 9 to 18 ng/mL; in data set [1] (setting [3]) it was 14 nM to 28 nM and 0.009 µg/mL to 0.018 µg/mL; in data set [1] (setting [4]), 0.015 µg/mL and 24 nM; in the data set with SK-BR-3 cells it was 0.009 µg/mL and 14.4 nM; in the data set on MCF-7 cells, 0.0165 µg/mL and 26.3 nM; in the data set on HCC-1954 cells, 0.018 µg/mL and 28.7 nM. The half-inhibitory concentration (IC50) in the data set with MDA-MB-231 cells was 0.0175 µg/mL and 27.9 nM. The “mean IC50 value across the whole cell panel” value in data set [1] (four breast cell lines) stood at 24 nM.

As to `COC1=CC[C@@H]([C@@H](C)/C=C(C)/C=C\C=C/C(=O)N[C@H](C(=O)N/C=C\C[C@H](C/C=C(\C)Cl)OC(=O)NCCCS)C(C)(C)C)OC1=O` [Compound 15], the IC50 in data set [1] (setting [3]) was 0.00048 µg/mL to 0.00149 µg/mL and 0.706 nM to 2.19 nM; in data set [1] (setting [4]) it was 0.00103 µg/mL and 1.51 nM; in the data set with SK-BR-3 cells, 0.00048 µg/mL and 0.706 nM; in the data set on MCF-7 cells it was 0.00145 µg/mL and 2.14 nM; in the data set with HCC-1954 cells it was 0.000675 µg/mL and 0.994 nM; with MDA-MB-231 cells, 0.00149 µg/mL and 2.19 nM. Further, in data set [1] (thiol containing tail), the “decrease of cytotoxic activity as compared to Compound 40” value is “about 8 fold”.

On to “Rituximab: anti-CD20 monoclonal antibody [reference compound]”, for which the “cytotoxic activity” value in data set [2] (50 μg/mL) is “virtually inactive”. Moreover, the “cytotoxic activity in DR curves” value in data set [2] (5.0E+01 to 2.62E-05 μg/mL) was “rather inactive”.

Consider `CC#CC[C@@H](C/C=C\NC(=O)[C@@H](NC(=O)\C=C/C=C\C(C)=C\[C@H](C)[C@@H]1CC=C(OC)C(=O)O1)C(C)(C)C)OC(=O)NCCCNC(=O)CCCCCN1C(=O)C=CC1=O` [Compound 25], for which the IC50 is 0.025 µg/mL to 0.053 µg/mL and 31 nM to 65 nM in data set [1] (setting [3]); 41 ng/mL in data set [1] (setting [4]); 0.0255 µg/mL and 31.1 nM with SK-BR-3 cells; 0.053 µg/mL and 64.6 nM in the data set with MCF-7 cells; 0.044 µg/mL and 53.7 nM in the data set on HCC-1954 cells; > 0.1 µg/mL and > 122 nM in the data set with MDA-MB-231 cells. For the same compound, in data set [1] (four breast cell lines), the “mean IC50 value across the whole cell panel” value came out at 49 nM.

With `C/C=C\C[C@@H](C/C=C\NC(=O)[C@@H](NC(=O)\C=C/C=C\C(C)=C\[C@H](C)[C@@H]1CC=C(OC)C(=O)O1)C(C)(C)C)OC(=O)NCCCNC(=O)CCCCCN1C(=O)C=CC1=O` [Compound 5], the concentration for half-maximal inhibition (IC50) in data set [1] (setting [3]) was 0.019 µg/mL to 0.077 µg/mL and 23.2 nM to 94.1 nM; in data set [1] (setting [4]), 0.0433 µg/mL and 52.6 nM; in the data set on SK-BR-3 cells it was 0.019 µg/mL and 23.2 nM; in the data set with MCF-7 cells it was 0.0775 µg/mL and 94.1 nM; in the data set with HCC-1954 cells, 0.0195 µg/mL and 23.8 nM; in the data set with MDA-MB-231 cells, 0.057 µg/mL and 69.4 nM.

`CC#CC[C@@H](C/C=C\NC(=O)[C@@H](NC(=O)\C=C/C=C\C(C)=C\[C@H](C)[C@@H]1CC=C(OC)C(=O)O1)C(C)(C)C)OC(=O)NCCCNC(=O)CCS` [Compound 27]: the IC50 in data set [1] (setting [3]) was 0.0105 µg/mL to 0.039 µg/mL and 15 nM to 55 nM; in data set [1] (setting [4]) it was 0.025 µg/mL and 35 nM; with SK-BR-3 cells, 0.0105 µg/mL and 14.7 nM; in the data set with MCF-7 cells it was 0.039 µg/mL and 54.6 nM; in the data set on HCC-1954 cells it was 0.0165 µg/mL and 23.1 nM; in the data set with MDA-MB-231 cells, 0.0345 µg/mL and 48.3 nM.

On to `C/C=C\C[C@@H](C/C=C\NC(=O)[C@@H](NC(=O)\C=C/C=C\C(C)=C\[C@H](C)[C@@H]1CC=C(OC)C(=O)O1)C(C)(C)C)OC(=O)NCCCN` [Compound 8], for which the 50% inhibitory concentration (IC50) was 0.0034 µg/mL to 0.00675 µg/mL and 2.94 nM to 15.1 nM in data set [1] (setting [3]); 0.00553 µg/mL and 8.79 nM in data set [1] (setting [4]); 8.67 nM in data set [1] (setting [5]); 0.0034 µg/mL and 5.41 nM in the data set with SK-BR-3 cells; 0.00675 µg/mL and 10.7 nM with MCF-7 cells; 0.0054 µg/mL and 8.59 nM in the data set with HCC-1954 cells. The concentration for half-maximal inhibition (IC50) with MDA-MB-231 cells is 0.00655 µg/mL and 10.4 nM. In addition, the “mean IC50 value across the whole cell panel” value in data set [1] (four breast cell lines) was 5.45 ng/mL.
